Test results published in patent EP4782453A1 (Beyang Therapeutics Co., Ltd., priority 2023, dated 2025).
Where two headings read alike, the source gives them in different places.

Legend:
[1] = tested on: MOLM-13 (carrying MLL-AF9); experiment: Inhibition of proliferation of human tumor cells (Alamar Blue, 7 days), MOLM-13; assay type: cell-based; conditions: Homo sapiens, MOLM-13 cells (carrying MLL-AF9), method calls the value GI50
Procedure, shortened: (§1)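 Suspension cells were plated, dosed the same day with a graded compound series, and incubated seven days at 37°C under 5% CO2. Growth was then measured by Alamar Blue fluorescence, and the concentration halving proliferation (GI50) was calculated relative to Day 0 and Day 7 vehicle controls.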

Menin-MLL = target: T1, Menin-MLL (Homo sapiens, UniProt O00255); experiment: Inhibitory activity against Menin-MLL binding (fluorescence polarization); conditions: 150 nM His-Menin, 15 nM FITC-MLL, 25°C for 60 min
T1 construct: His-Menin (M1-L615 end); purchased BIORTUS BP9210
T1 sequence (O00255 1-615 isoform O00255-1): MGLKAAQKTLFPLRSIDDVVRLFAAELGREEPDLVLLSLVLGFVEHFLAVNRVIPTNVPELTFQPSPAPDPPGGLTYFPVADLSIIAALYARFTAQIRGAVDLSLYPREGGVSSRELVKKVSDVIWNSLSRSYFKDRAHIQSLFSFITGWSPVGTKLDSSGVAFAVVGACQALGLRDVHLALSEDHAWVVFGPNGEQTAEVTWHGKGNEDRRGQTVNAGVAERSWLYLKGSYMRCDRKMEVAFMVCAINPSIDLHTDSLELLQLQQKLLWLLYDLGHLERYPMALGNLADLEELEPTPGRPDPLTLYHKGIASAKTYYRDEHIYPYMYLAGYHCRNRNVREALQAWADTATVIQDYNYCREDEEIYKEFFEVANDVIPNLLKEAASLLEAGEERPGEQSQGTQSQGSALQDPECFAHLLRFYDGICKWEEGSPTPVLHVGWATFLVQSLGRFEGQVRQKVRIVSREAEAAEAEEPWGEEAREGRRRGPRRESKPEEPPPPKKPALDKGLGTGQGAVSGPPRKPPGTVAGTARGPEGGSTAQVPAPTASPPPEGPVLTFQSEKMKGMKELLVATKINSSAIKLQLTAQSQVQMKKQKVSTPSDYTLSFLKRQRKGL
Procedure, shortened: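 Fluorescence polarization competition: compound and 150 nM His-tagged menin (residues M1-L615) sit 15 min at 25 °C in pH 7.5 HEPES buffer with NaCl, DTT and BSA; 15 nM FITC-labelled MLL peptide then binds for 60 min. IC50 fitted sigmoidally from mP values, duplicate wells.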

[2] = tested on: MV-4-11 (carrying MLL-AF4); experiment: Inhibition of proliferation of human tumor cells (Alamar Blue, 7 days), MV-4-11; assay type: cell-based; conditions: Homo sapiens, MV4-11, 168 h, MV-4-11 cells (carrying MLL-AF4), method calls the value GI50
Procedure, shortened: as §1

[3] = fluorescence polarization, read-out: Menin-MLL IC50
[4] = Menin-MLL IC50, fluorescence polarization

Compound | IC50 ([1]; 168 h) [nM] | IC50 (Menin-MLL; [3]) [nM] | IC50 [2] [nM] | IC50 ([1]; MOLM-13, 168 h) [nM] | IC50 (Menin-MLL; [4]) [nM]
CO[C@H]1CCN([C@H]2C[C@H](C(C(C)C)N3CC(c4cc(-c5ccc(F)cc5C(=O)N5CCOC[C@H]5C)c5cnn(C)c5c4)C3)C2)C1 (stereo partly drawn) [Example 196-1, 4-{4-fluoro-2-[(3R)-3-methylmorpholin-4-carbonyl]phenyl}-1-methyl-6-(1-{2-methyl-1-[(1r,3r)-3-[(3S)-3-methoxypyrrolidin-1-yl]cyclobutyl]propyl}azacyclobutan-3-yl)-1H-indazole] |  |  | 36 | 120 | 50
Cc1ncc2c(-c3ccc(F)cc3C(=O)N3[C@H](C)COC[C@H]3C)cc(C3CN(CC4CCOCC4)C3)cn12 [Example 212, (3R,5R)-4-[5-fluoro-2-(3-methyl-6-{1-[(oxacyclohexan-4-yl)methyl]azacyclobutan-3-yl}imidazo[1,5-a]pyridin-8-yl)benzoyl]-3,5-dimethylmorpholine] | 31 | 12.5 | 16 |  | 
Cc1nc(F)c2c(-c3ccc(F)cc3C(=O)N3[C@H](C)COC[C@H]3C)cc(C3CN(CC4CCN(C(=O)CC(C)C)CC4)C3)cn12 [Example 218] | 11 | 13 | 6 |  | 
Cc1nc(F)c2c(-c3ccc(F)cc3C(=O)N(CC(F)F)C(C)C)cc(C3CN(C(=O)[C@@H]4CCCCN4)C3)cn12 [Example 131, N-(2,2-difluoroethyl)-5-fluoro-2-(1-fluoro-3-methyl-6-{1-[(2S)-piperidin-2-carbonyl]azacyclobutan-3-yl}imidazo[1,5-a]pyridin-8-yl)-N-(isopropyl)benzamide] | 40 | 15.5 | 50 |  | 
CCS(=O)(=O)N[C@@H]1CC[C@@H](CN2CC(c3cc(-c4ccc(F)cc4C(=O)N(CC(F)F)C(C)C)c4c(F)nc(C)n4c3)C2)OC1 [Example 151] | 61 | 15.5 | 40 |  | 
Cc1nc(F)c2c(-c3ccc(F)cc3C(=O)N3[C@H](C)COC[C@H]3C)cc(C3CN(C[C@H]4CC[C@H](n5cncn5)CC4)C3)cn12 [Example 213, (3R,5R)-4-{5-fluoro-2-[1-fluoro-3-methyl-6-(1-{[(1r,4r)-4-(1H-1,2,4-triazol-1-yl)cyclohexyl]methyl}azacyclobutan-3-yl)imidazo[1,5-a]pyridin-8yl]benzoyl}-3,5-dimethylmorpholine] |  |  | 13 | 29 | 11
COCCN(C)C1CC(C(C(C)C)N2CC(c3cc(-c4ccc(F)cc4C(=O)N4CCOC[C@H]4C)c4cnn(C)c4c3)C2)C1 (stereo partly drawn) [Example 195, 3-{1-[3-(4-{4-fluoro-2-[(3R)-3-methylmorpholin-4-carbonyl]phenyl}-1-methyl-1H-indazol-6-yl)azacyclobutan-1-yl]-2-methylpropyl}-N-(2-methoxyethyl)-N-methylcyclobutan-1-amine] | 35 | 41 | 13 |  | 
Cc1nc(F)c2c(-c3ccc(F)cc3C(=O)N3[C@H](C)COC[C@H]3C)cc(C3CN(CC4CCN(C(=O)C5CCOCC5)CC4)C3)cn12 [Example 221] | 27 | 27 | 12 |  | 
CCS(=O)(=O)N[C@H]1CC[C@H](CN2CC(c3cc(-c4ccc(F)cc4C(=O)N(CC(F)F)C(C)C)c4c(F)nc(C)n4c3)C2)CC1 [Example 132, N-(2,2-difluoroethyl)-5-fluoro-2-[1-fluoro-3-methyl-6-(1-{[(1r,4r)-4-ethanesulfonamidocyclohexyl]methyl}-azacyclobutan-3-yl)imidazo[1,5-a]pyridin-8-yl]-N-(isopropyl)benzamide] |  |  | 17 | 16 | 6

Continued, in another order:

IC50 ([1]; 168 h) [nM] | IC50 (Menin-MLL; [3]) [nM] | IC50 [2] [nM] | Compound | IC50 ([1]; MOLM-13, 168 h) [nM] | IC50 (Menin-MLL; [4]) [nM]
43 | 3.8 | 18 | CCN(C(=O)c1cc(F)ccc1-c1cc(C2CN([C@H](CCCN3CCN(C)CC3)C(C)C)C2)cc2c1cnn2C)C(C)C [Example 420] |  | 
3.7 | 6 | 0.69 | CCN(C(=O)c1cc(F)ccc1-c1cc(C2CN([C@H](CCCN(C)CCOC)C(C)C)C2)cn2c(C)nc(F)c12)C(C)C [Example 307-2, N-ethyl-5-fluoro-2-(1-fluoro-6-{1-[(3R)-6-[(2-methoxyethyl)(methyl)amino]-2-methylhexan-3-yl]azacyclobutan-3-yl}-3-methylimidazo[1,5-a]pyridin-8-yl)-N-(isopropyl)benzamide] |  | 
7 | 3 | 1.6 | CO[C@@H]1CN(CCC[C@H](C(C)C)N2CC(c3cc(-c4ccc(F)cc4C(=O)N4CCOC[C@H]4C)c4c(F)nc(C)n4c3)C2)C[C@H]1O (relative stereo) [Example 291, (3r,4r)-1-[(4R)-4-[3-(1-fluoro-8-{4-fluoro-2-[(3R)-3-methylmorpholin-4-carbonyl]phenyl}-3-methylimidazo[1,5-a]pyridin-6-yl)azacyclobutan-1-yl]-5-methylhexyl]-4-methoxypyrrolidin-3-ol] |  | 
27 | 18 | 11 | Cc1nc(F)c2c(-c3ccc(F)cc3C(=O)N3CCOC[C@H]3C)cc(C3CN([C@@H](C)C4CCOCC4)C3)cn12 [Example 238-2, (3R)-4-[5-fluoro-2-(1-fluoro-3-methyl-6-{1-[(1S)-1-(oxacyclohexan-4-yl)ethyl]azacyclobutan-3-yl}imidazo[1,5-a]pyridin-8-yl)benzoyl]-3-methylmorpholine] |  | 
130 | 34 | 54 | Cc1nc(F)c2c(-c3ccc(F)cc3C(=O)N3CCOC[C@H]3C)cc(C3CN([C@@H](CC[C@H]4CNCCO4)C(C)C)C3)cn12 [Example 244-2, (3R)-4-[5-fluoro-2-(1-fluoro-3-methyl-6-{1-[(3S)-4-methyl-1-[(2S)-morpholin-2-yl]pentan-3-yl]azacyclobutan-3-yl}imidazo[1,5-a]pyridin-8yl)benzoyl]-3-methylmorpholine] |  | 
16 | 22.5 | 6.1 | CCC(=O)N1CCC(CN2CC(c3cc(-c4ccc(F)cc4C(=O)N4[C@H](C)COC[C@H]4C)c4c(F)nc(C)n4c3)C2)CC1 [Example 231] |  | 
23 | 4 | 5.4 | CCNC(=O)N1CCC(C(C)N2CC(c3cc(-c4ccc(F)cc4C(=O)N(CC)C(C)C)c4cnc(C)n4c3)C2)CC1 (stereo not drawn) [Example 285] |  | 
46 | 9.5 | 4.9 | CCCC(=O)N1CCC([C@H](C)N2CC(c3cc(-c4ccc(F)cc4C(=O)N4CCOC[C@H]4C)c4c(F)nc(C)n4c3)C2)CC1 [Example 294] |  | 
